Results as given in the supplement of paper PMC4932681.

Experiments:
T-47D Tam1 [1] = test: drug sensitivity score (DSS) (DSS (dimensionless)); higher = more sensitive; extreme values may be limits of the assay; details: 4-OH-tamoxifen in medium 1 µM; 72 h
In short: (§1)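 CellTiter-Glo viability was the readout, taken on a PHERAstar and normalised to vehicle-only and positive controls. It was measured after breast cancer cell lines and their resistant derivatives spent 72 h at 37 °C in 384-well plates containing library drugs at five concentrations spanning a 10 000-fold range, with 1 μM of the selecting drug in the medium of resistant lines. From logistic dose–response fits in the Breeze pipeline came drug sensitivity score, relative IC50 (curve midpoint) and top-dose inhibition.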

ZR-75-1 Tam2 [2] = test: as above; details: 4-OH-tamoxifen in medium 1 µM; 72 h
In short: as §1

T-47D [3] = test: as above; details: 72 h
In short: as §1

BT-474 [4] = test: as above; details: 72 h
In short: as §1

BT-474 Tam2 [5] = test: as above; details: 4-OH-tamoxifen in medium 1 µM; 72 h
In short: as §1

ZR-75-1 [6] = test: as above; details: 72 h
In short: as §1

MCF-7 Tam1 = test: as above; details: 4-OH-tamoxifen in medium 1 µM; 72 h
In short: as §1

ZR-75-1 Tam1 [7] = test: as above; details: 4-OH-tamoxifen in medium 1 µM; 72 h
In short: as §1

MCF-7 [8] = test: as above; details: 72 h
In short: as §1

T-47D Tam2 [9] = test: as above; details: 4-OH-tamoxifen in medium 1 µM; 72 h
In short: as §1

BT-474 Tam1 [10] = test: as above; details: 4-OH-tamoxifen in medium 1 µM; 72 h
In short: as §1

T-47D Tam1 [11] = test: relative IC50 (midpoint of fitted logistic curve, plateau may be below 50% inhibition; CellTiter-Glo viability); higher = less potent; details: 4-OH-tamoxifen in medium 1 µM; 72 h
In short: as §1

ZR-75-1 Tam2 [12] = test: as above; details: 4-OH-tamoxifen in medium 1 µM; 72 h
In short: as §1

T-47D [13] = test: as above; details: 72 h
In short: as §1

BT-474 [14] = test: as above; details: 72 h
In short: as §1

BT-474 Tam2 [15] = test: as above; details: 4-OH-tamoxifen in medium 1 µM; 72 h
In short: as §1

ZR-75-1 [16] = test: as above; details: 72 h
In short: as §1

ZR-75-1 Tam1 [17] = test: as above; details: 4-OH-tamoxifen in medium 1 µM; 72 h
In short: as §1

MCF-7 [18] = test: as above; details: 72 h
In short: as §1

T-47D Tam2 [19] = test: as above; details: 4-OH-tamoxifen in medium 1 µM; 72 h
In short: as §1

BT-474 Tam1 [20] = test: as above; details: 4-OH-tamoxifen in medium 1 µM; 72 h
In short: as §1

Compound	drug sensitivity score (T-47D Tam1 [1])	drug sensitivity score (ZR-75-1 Tam2 [2])	drug sensitivity score (T-47D [3]; 4-OH-tamoxifen in medium 0 µM)	drug sensitivity score (T-47D [3]; 4-OH-tamoxifen in medium 1 µM)	drug sensitivity score (BT-474 [4]; 4-OH-tamoxifen in medium 0 µM)	drug sensitivity score (BT-474 [4]; 4-OH-tamoxifen in medium 1 µM)	drug sensitivity score (BT-474 Tam2 [5])	drug sensitivity score (ZR-75-1 [6]; 4-OH-tamoxifen in medium 0 µM)	drug sensitivity score (ZR-75-1 [6]; 4-OH-tamoxifen in medium 1 µM)	drug sensitivity score (MCF-7 Tam1)	drug sensitivity score (ZR-75-1 Tam1 [7])	drug sensitivity score (MCF-7 [8]; 4-OH-tamoxifen in medium 0 µM)	drug sensitivity score (MCF-7 [8]; 4-OH-tamoxifen in medium 1 µM)	drug sensitivity score (T-47D Tam2 [9])	drug sensitivity score (BT-474 Tam1 [10])	relative IC50 (T-47D Tam1 [11]) [nM]	relative IC50 (ZR-75-1 Tam2 [12]) [nM]	relative IC50 (T-47D [13]; 4-OH-tamoxifen in medium 0 µM) [nM]	relative IC50 (BT-474 [14]; 4-OH-tamoxifen in medium 0 µM) [nM]	relative IC50 (BT-474 [14]; 4-OH-tamoxifen in medium 1 µM) [nM]	relative IC50 (BT-474 Tam2 [15]) [nM]	relative IC50 (ZR-75-1 [16]; 4-OH-tamoxifen in medium 0 µM) [nM]	relative IC50 (ZR-75-1 [16]; 4-OH-tamoxifen in medium 1 µM) [nM]	relative IC50 (ZR-75-1 Tam1 [17]) [nM]	relative IC50 (MCF-7 [18]; 4-OH-tamoxifen in medium 0 µM) [nM]	relative IC50 (MCF-7 [18]; 4-OH-tamoxifen in medium 1 µM) [nM]	relative IC50 (T-47D Tam2 [19]) [nM]	relative IC50 (BT-474 Tam1 [20]) [nM]	relative IC50 (T-47D [13]; 4-OH-tamoxifen in medium 1 µM) [nM]
O=C(Cc1ccc(-c2ccc(OCCN3CCOCC3)cc2)cn1)NCc1ccccc1 [KX2-391]	10.6	4.76	2.76	4.36	12.3	21.8	19.7	11.5	4.21	0	3.06	11.2	10.5	11.3	22	498	1110	1600	53.6	78	155	53.1	779	2190	86.8	189	91.9	80.2	
CCCCCCCCc1ccc(CCC(N)(CO)CO)cc1 [Fingolimod]	2.83	2.69	2.91	4.24	4.44	4.21	4.99	1.58	2.36	0.0112	2.18	5.74	3.17	2.59	4.13	3780	3490	4090	3770	4050	3390	3930	3710	3370	2890	3910	3860	4130	3840
CC[C@]1(O)C[C@@H]2CN(CCc3c([nH]c4ccccc34)[C@@](C(=O)OC)(c3cc4c(cc3OC)N(C)[C@H]3[C@@](O)(C(=O)OC)[C@H](OC(C)=O)[C@]5(CC)C=CCN6CC[C@]43[C@@H]65)C2)C1 [Vinblastine]	6.59	3.58	2.77	0.561	13.2	21.5	17.1	11.9	2.61	0.0008	1.94	12.8	12.5	8.2	13.1	69.2	78.9	113	3.77	9.7	24.4	4.23	174	214	9.94	13.8	44.2	48.1	
